Data taken from patent US11717553B2, “Combined plant extract for getting rid of mites and acne and preparation method and use thereof” (Nanjing Institute for Comprehensive Utilization of Wild …, priority 2020, dated 2023).
Like-named read-outs stand apart in the source and are kept apart here.

Assays:
human follicle mites [1] = assay: In vitro experiment of mite elimination by combined plant extracts and single plant extracts (Example 4); conditions: 4 h
Source text: (§1) Mites for experiments: follicle mites were obtained with a transparent tape sticking overnight. Specifically, subjects were required to clean their face thoroughly and stick a transparent tape which is 6 cm long and 1.5 cm wide to their foreheads, cheeks, noses, chins or other sites before going to bed. The tape was peeled off the next day, stuck on a glass slide and observed under a microscope.
Preparation of samples to be tested: a total of 7 samples of combined plant extracts and single plant extracts prepared according to Examples 1-3 and Comparative Examples 1-4, were sequentially denoted as samples no. 1-7 to be tested, and diluted with deionized water to a 25% concentration for later use.
1.2.1 Test groups: the test solutions were denoted as no. 1-7 sequentially, a 2% metronidazole solution was used as the positive control group, and liquid paraffin was used as the blank control group. 10 follicle mites were included in each group. […]
(§2) 1.2.2 Observation method: a micropipette was used to draw 200 μL of an agent solution and drop it on a slide. […] The tapes where follicle mites were detected were stuck on the slides to allow sufficient contact of the solution and the mites. […]
(§3) 1.2.3 Determination of death: the mites whose limbs or feet were immobile under a 400× microscope for 1 min were initially determined to be dead, and those who still immobile after 30 min were diagnosed as dead. […]

human follicle mites [2] = conditions: 4 h
Source text: as §1
Preparation of samples to be tested: The combined plant extract prepared according to Example 1 was diluted with deionized water to obtain final concentrations of 100%, 50%, 25%, 12.5%, 6.25%, and 3.125% for later use.
1.2.1 Test groups: the combined plant extract to be tested was divided into 6 concentration gradient groups, a 2% metronidazole solution was used as the positive control group, and liquid paraffin was used as the blank control group. 10 follicle mites were included in each group. […]
as §2, §3

Cc1ncc([N+](=O)[O-])n1CCO [Metronidazole, metronidazole]
Corrected mortality rate (%) ± SE (human follicle mites [1]): 56.73 ± 4.07% | Corrected mortality rate (%) ± SE (human follicle mites [2]): 54.66 ± 4.38%
